Laboratory results: patent US20120004166A1, “ARYLOXYALKYLENE-SUBSTITUTED HYDROXYPHENYLHEXYNOIC ACIDS, PROCESS FOR PREPARATION THEREOF AND USE THEREOF AS A MEDICAMENT” (SANOFI, priority 2010, published 2012)

Target: T1, GPCR GPR40 (Rattus norvegicus, UniProt Q8K3T4)
T1 construct: expressed in transfected cells; host or cells: HEK293
Assay: In vitro FLIPR assay with recombinant cells which express the GPCR GPR40
Assay type: cell-based
Conditions: recombinant HEK293 cells expressing rat GPR40; agonist-induced change in intracellular Ca2+ (Fluo-4, FLIPR); 100% = 10 μM linoleic acid
Experimental: In Vitro FLIPR Assay with Recombinant Cells which Express the GPCR GPR40
Function-testing assays were performed by means of the FLIPR technique (“Fluorescence Imaging Plate Reader”, Molecular Devices Corp.). To this end, agonist-induced changes in the intracellular concentration of Ca^2+ were determined in recombinant HEK293 cells which expressed the GPCR GPR40 (species: rat). For the studies, cells were sown into 96-well microtiter plates (60 000 cells/well) and left to grow overnight. The medium was removed and the cells were incubated in buffer which contained the fluorescent dye Fluo-4. After this loading with dye, the cells were washed, test substance was added and changes in the intracellular Ca^2+ concentration were measured in the FLIPR unit. Results were presented as the percentage change relative to the control (0%: no test substance added; 100%: 10 μM reference agonist linoleic acid added) and used to calculate dose/effect curves, and EC50 values were determined.

T1 sequence (Q8K3T4 whole entry): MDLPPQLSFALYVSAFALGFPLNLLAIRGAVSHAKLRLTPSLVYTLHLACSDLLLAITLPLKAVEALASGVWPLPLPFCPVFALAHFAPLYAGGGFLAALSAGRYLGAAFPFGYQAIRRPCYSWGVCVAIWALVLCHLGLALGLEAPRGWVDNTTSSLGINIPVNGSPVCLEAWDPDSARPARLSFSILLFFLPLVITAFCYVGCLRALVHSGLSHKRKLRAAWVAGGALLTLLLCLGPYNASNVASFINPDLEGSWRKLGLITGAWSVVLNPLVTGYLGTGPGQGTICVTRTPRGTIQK

SMILES	EC50 [nM]
CC#CC(CC(=O)O)c1ccc(OCCOc2ccccc2F)cc1 (stereo not shown) [Example 18, 3-{4-[2-(2-Fluorophenoxy)ethoxy]phenyl}hex-4-ynoic acid]	460
CC#CC(CC(=O)O)c1ccc(OCCOc2ccccc2Cl)cc1 (stereo not shown) [Example 19, 3-{4-[2-(2-Chlorophenoxy)ethoxy]phenyl}hex-4-ynoic acid]	180
CC#CC(CC(=O)O)c1ccc(OCCOc2ccccc2C)cc1 (stereo not shown) [Example 20, 3-{4-[2-o-Tolyloxyethoxy]phenyl}hex-4-ynoic acid]	80
CC#CC(CC(=O)O)c1ccc(OCCOc2ccccc2OC)cc1 (stereo not shown) [Example 21, 3-{4-[2-(2-Methoxyphenoxy)ethoxy]phenyl}hex-4-ynoic acid]	800
CC#CC(CC(=O)O)c1ccc(OCCOc2ccccc2C(F)(F)F)cc1 (stereo not shown) [Example 22, 3-{4-[2-(2-Trifluoromethylphenoxy)ethoxy]phenyl}hex-4-ynoic acid]	50
CC#CC(CC(=O)O)c1ccc(OC(C)CCOc2ccc(C(F)(F)F)cc2)cc1 (stereo not shown) [Example 25, 3-{4-[1-Methyl-3-(4-trifluoromethylphenoxy)propoxy]phenyl}hex-4-ynoic acid]	1990
CC#CC(CC(=O)O)c1ccc(OCCC(C)Oc2cccc(C)c2)cc1 (stereo not shown) [Example 26, 3-[4-(3-m-Tolyloxybutoxy)phenyl]-hex-4-ynoic acid]	50
CC#CC(CC(=O)O)c1ccc(OCC[C@@H](C)Oc2cccc(C)c2)cc1 (stereo partly drawn) [Example 27, 3-[4-((R)-3-m-Tolyloxybutoxy)phenyl]hex-4-ynoic acid]	50
CC#CC(CC(=O)O)c1ccc(OCC[C@H](C)Oc2cccc(C)c2)cc1 (stereo partly drawn) [Example 28, 3-[4-((S)-3-m-Tolyloxybutoxy)phenyl]hex-4-ynoic acid]	50
CC#CC(CC(=O)O)c1ccc(OCC[C@@H](C)Oc2ccccc2C(F)(F)F)cc1 (stereo partly drawn) [Example 29, 3-{4-[(R)-3-(2-Trifluoromethylphenoxy)butoxy]phenyl}hex-4-ynoic acid]	170
CC#CC(CC(=O)O)c1ccc(OCC[C@H](C)Oc2ccccc2C(F)(F)F)cc1 (stereo partly drawn) [Example 30, 3-{4-[(S)-3-(2-Trifluoromethylphenoxy)butoxy]phenyl}hex-4-ynoic acid]	140
CC#CC(CC(=O)O)c1ccc(OCC[C@@H](C)Oc2ccc(C(F)(F)F)cc2Cl)cc1 (stereo partly drawn) [Example 31, 3-{4-[(R)-3-(2-Chloro-4-trifluoromethylphenoxy)butoxy]phenyl}hex-4-ynoic acid]	640
CC#CC(CC(=O)O)c1ccc(OCC[C@H](C)Oc2ccc(C(F)(F)F)cc2Cl)cc1 (stereo partly drawn) [Example 32, 3-{4-[(S)-3-(2-Chloro-4-trifluoromethylphenoxy)butoxy]phenyl}hex-4-ynoic acid]	770
CC#CC(CC(=O)O)c1ccc(OC(C)CCOc2cccc(C(C)(C)C)c2)cc1 (stereo not shown) [Example 33, 3-{4-[3-(3-tert-Butylphenoxy)-1-methylpropoxy]phenyl}hex-4-ynoic acid]	1610
CC#CC(CC(=O)O)c1ccc(OCC(C)COc2ccc(C(F)(F)F)cc2)cc1 (stereo not shown) [Example 34, 3-{4-[2-Methyl-3-(4-trifluoromethylphenoxy)propoxy]phenyl}hex-4-ynoic acid]	810
CC#CC(CC(=O)O)c1ccc(OCC(C)COc2cccc(C(C)(C)C)c2)cc1 (stereo not shown) [Example 35, 3-{4-[3-(3-tert-Butylphenoxy)-2-methylpropoxy]phenyl}hex-4-ynoic acid]	1090
CC#CC(CC(=O)O)c1ccc(OCC(C)COc2cc(C)ccc2C(C)C)cc1 (stereo not shown) [Example 36, 3-{4-[3-(2-Isopropyl-5-methylphenoxy)-2-methylpropoxy]phenyl}hex-4-ynoic acid]	1590

SMILES	EC50 [nM]
CC#CC(CC(=O)O)c1ccc(OCC(C)COc2ccc(C(C)(C)C)cc2Cl)cc1 (stereo not shown) [Example 37, 3-{4-[3-(4-tert-Butyl-2-chlorophenoxy)-2-methylpropoxy]phenyl}hex-4-ynoic acid]	6010
CC#CC(CC(=O)O)c1ccc(OCC(C)COc2ccccc2C(F)(F)F)cc1 (stereo not shown) [Example 38, 3-{4-[2-methyl-3-(2-trifluoromethylphenoxy)propoxy]phenyl}hex-4-ynoic acid]	730
CC#CC(CC(=O)O)c1ccc(OCC(C)COc2cc(C(C)C)ccc2C)cc1 (stereo not shown) [Example 39, 3-{4-[3-(5-Isopropyl-2-methylphenoxy)-2-methylpropoxy]phenyl}hex-4-ynoic acid]	3200
CC#CC(CC(=O)O)c1ccc(OCC(C)COc2ccc(Br)c(Cl)c2)cc1 (stereo not shown) [Example 40, 3-{4-[3-(4-Bromo-3-chlorophenoxy)-2-methylpropoxy]phenyl}hex-4-ynoic acid]	830
CC#CC(CC(=O)O)c1ccc(OCC(C)(C)COc2ccc(C(F)(F)F)cc2)cc1 (stereo not shown) [Example 41, 3-{4-[2,2-dimethyl-3-(4-trifluoromethylphenoxy)propoxy]phenyl}hex-4-ynoic acid]	800
CC#CC(CC(=O)O)c1ccc(OCC(CC)COc2ccc(C(F)(F)F)cc2)cc1 (stereo not shown) [Example 42, 3-{4-[2-(4-Trifluoromethylphenoxymethyl)butoxy]phenyl}hex-4-ynoic acid]	1780
CC#CC(CC(=O)O)c1ccc(OCC(CC)COc2cccc(C(C)(C)C)c2)cc1 (stereo not shown) [Example 43, 3-{4-[2-(3-tert-Butylphenoxymethyl)butoxy]phenyl}hex-4-ynoic acid]	2030
CC#CC(CC(=O)O)c1ccc(OCC(CCC)COc2ccc(C(F)(F)F)cc2)cc1 (stereo not shown) [Example 44, 3-{4-[2-(4-Trifluoromethylphenoxymethyl)pentyloxy]phenyl}hex-4-ynoic acid]	5100
CC#CC(CC(=O)O)c1ccc(OCC(CCC)COc2cccc(C(C)(C)C)c2)cc1 (stereo not shown) [Example 45, 3-{4-[2-(3-tert-Butylphenoxymethyl)pentyloxy]phenyl}hex-4-ynoic acid]	6850
CC#CC(CC(=O)O)c1ccc(OCC(COc2ccc(C(F)(F)F)cc2)c2ccccc2)cc1 (stereo not shown) [Example 46, 3-{4-[2-Phenyl-3-(4-trifluoromethylphenoxy)propoxy]phenyl}hex-4-ynoic acid]	8490
CC#CC(CC(=O)O)c1ccc(OCC(COc2cccc(C(C)(C)C)c2)c2ccccc2)cc1 (stereo not shown) [Example 47, 3-{4-[3-(3-tert-Butylphenoxy)-2-phenylpropoxy]phenyl}hex-4-ynoic acid]	8740
CC#CC(CC(=O)O)c1ccc(OCC(COc2ccc(C(F)(F)F)cc2Cl)OCc2ccccc2)cc1 (stereo not shown) [Example 48, 3-{4-[2-Benzyloxy-3-(2-chloro-4-trifluoromethylphenoxy)propoxy]phenyl}hex-4-ynoic acid]	7500
CC#CC(CC(=O)O)c1ccc(OCC(CO)COc2ccc(C#N)c(Cl)c2)cc1 (stereo not shown) [Example 49, 3-{4-[3-(3-Chloro-4-cyanophenoxy)-2-hydroxymethylpropoxy]phenyl}hex-4-ynoic acid]	150
CC#CC(CC(=O)O)c1ccc(OCC(COC)COc2ccc(C#N)c(Cl)c2)cc1 (stereo not shown) [Example 50, 3-{4-[3-(3-Chloro-4-cyanophenoxy)-2-methoxymethylpropoxy]phenyl}hex-4-ynoic acid]	550
CC#CC(CC(=O)O)c1ccc(OCC(COCC2CC2)COc2ccc(C#N)c(Cl)c2)cc1 (stereo not shown) [Example 51, 3-{4-[3-(3-Chloro-4-cyanophenoxy)-2-cyclopropylmethoxymethylpropoxy]phenyl}hex-4-ynoic acid]	2400
CC#CC(CC(=O)O)c1ccc(OCC(O)COc2ccc(C(F)(F)F)cc2Cl)cc1 (stereo not shown) [Example 52, 3-{4-[3-(2-Chloro-4-trifluoromethylphenoxy)-2-hydroxypropoxy]phenyl}hex-4-ynoic acid]	990
CC#CC(CC(=O)O)c1ccc(OCC(COc2ccc(C(F)(F)F)cc2Cl)OC)cc1 (stereo not shown) [Example 53, 3-{4-[3-(2-chloro-4-trifluoromethylphenoxy)-2-methoxypropoxy]phenyl}hex-4-ynoic acid]	200
